According to patent US4268630A, “Microbiological production of ketones from C3 -C6 alkanes” (priority 1979, dated 1981):

How the values were obtained:
[1] = test system: Pseudomonas MS ATCC 25262; assay: Oxidation of sec-alcohols to ketones by resting cell suspension; format: cell-based; settings: methanol-grown, facultative
Description: (§1) The pH of the nutrient medium was adjusted to 7.0 by the addition of acid or base and 50 ml. samples of the nutrient medium were charged into a plurality of 300 ml. shaker flasks. The shaker flasks were inoculated with an inoculating loop of cells from an agar plate containing homogeneous colonies of the microorganisms on the plate (the purity of the isolates was confirmed by microscopic examination). The isolates had been maintained on methanol (0.4% V/V) agar plates or on agar plates under an atmosphere of methane and air having a 1:1 V/V gas ratio which had been transferred every two weeks. For growth on methanol, the medium was supplemented with 0.4% methanol. For growth on methane, the gaseous phase of the inoculated flasks was replaced with a gas mixture comprised on methane and air having a ratio of 1:1 on a V/V basis. The inoculated flasks were sealed air-tight and were incubated on a rotary shaker of orbital radius 2.5 cm. at 250 rpm and at 30° C. for two days until turbidity in the medium had developed. The cells were harvested by centrifugation at 10,000×g. at 4° C. for 30 minutes. The cell pellet was washed twice with a 0.05 M phosphate buffer at a pH of 7.0 (containing 0.02 M MgCl2). The washed cells were then suspended in a 0.05 M phosphate buffer at pH 7.0.
(§2) A 0.5 ml. sample of each washed cell suspension (2 mg. cells) was put into 10 ml. vials at 4° C. which were sealed with a rubber cap. The gaseous phase of the vials was removed with vacuum and then was replaced with a gas mixture of the substrate reactant (i.e., alkane or secondary alcohol) and oxygen at a 1:1 V/V ratio. (In the case of a liquid substrate, i.e., secondary alcohol, 10 μl of the substrate was put in the 10 ml. vials). […] Samples of product (1-3 μl) were withdrawn periodically with a microsyringe and the products were analyzed by gas chromatography (ionization flame detector column).
(§3) The procedure in Example 1 was repeated except that a plurality of methanol-utilizing methylotrophic microorganisms were each aerobically grown in a methanol-containing nutrient medium instead of a methane-containing medium. The nutrients in the medium were the same as indicated in Example 1 except that 0.4% V/V methanol was used as the alcohol dehydrogenase inducer and as the major carbon and energy source for growth. The cells were harvested and washed as described in Example 1. The resting microbial cells of the induced methanol-grown methanol-utilizing methylotrophic microorganisms were then contacted with C3 -C6 secondary alcohols in a buffered solution by the procedure of Example 1.

[2] = test system: Pseudomonas sp. ATCC 21439; assay: as above; format: cell-based; settings: methanol-grown, obligate
Description: as §1, §2, §3

[3] = test system: Pichia sp. NRRL-Y-11328; assay: Oxidation of sec-alcohols to ketones by cell suspensions of yeasts; format: cell-based
[4] = test system: Torulopsis sp. Strain A1 (NRRL Y-11,419); assay: as above; format: cell-based
[5] = test system: Kloeckera sp. Strain A2 (NRRL Y-11,420); assay: as above; format: cell-based
[6] = test system: cell extracts of Hansenula polymorpha ATCC 26,012; assay: NAD+-dependent oxidation of secondary alcohols by cell extracts of yeasts; format: biochemical; settings: for Conversion Rate, secondary alcohol to methylketone: cell extracts, grown on methanol, NAD+, gas chromatography
[7] = test system: cell extracts of Torulopsis sp. strain A1 NRRL Y-11,419; assay: as above; format: biochemical; settings: for Conversion Rate, secondary alcohol to methylketone: cell extracts, grown on methanol, NAD+, gas chromatography
[8] = test system: secondary alcohol dehydrogenase (SADH); assay: Activity of purified secondary alcohol dehydrogenase (inhibition, substrate specificity, Km); format: biochemical, Pseudomonas sp. ATCC 21439; settings: for relative percent rate of oxidation: 2-butanol = 100%
Description: Secondary alcohol dehydrogenase (SADH) from an obligate methanol utilizer, Pseudomonas sp. ATCC 21439 was purified as follows. […] 0.05 M sodium phosphate buffer, pH 7.0 with 0.5 mM dithiothretol (buffer A) and were disrupted sonically (5×1 min.). The crude extract was separated by centrifugation. The crude extract was heat-treated at 50° C. in a water bath for 10 minutes. The resulting precipitate was removed by centrifugation. To the supernatant solution, 25 ml of protamine sulfate solution (2% solution in 0.1 M Tris base) was added dropwise with continuous stirring. After standing for 30 minutes, the extract was centrifuged. The supernatant solution was fractionated with solid ammonium sulfate. The material precipitating between 30 and 60% saturation was collected and was dialized overnight against buffer A. The The dialized material was applied to a DEAE-cellulose column (3 cm by 35 cm) that had been equilibrated with buffer A. The secondary alcohol dehydrogenase activity was eluted in the void volume. This DEAE-cellulose eluate was concentrated by ammonium sulfate fractionation. Material precipitating between 30 and 50% ammonium sulfate saturation was collected by centrifugation and dialyzed overnight against A. This fraction was further washed and filtered through an Amicon unit with XM 50 membrane. The concentrated fraction (6 ml) inside the Amicon unit was applied to an Affi-Gel Blue column (0.8 cm×18 cm) which had been equilibrated with buffer A for affinity chromatography. The column was washed overnight with buffer A (0.18 ml./min.) and then was eluted with buffer A containing 5 mM NAD. Each 1 ml. fraction was collected.
The purified secondary alcohol dehydrogenase enzyme (SADH) may be used directly for converting C3 -C6 secondary alcohols to the corresponding methyl ketones by the procedures described above; however, a source of NAD^+ must be added to the reaction medium. One can determine the NAD-linked secondary alcohol dehydrogenase activity with a fluorescence spectrophotometer (Perkin Elmer, Model MPF 44A) by following the formation of reduced NAD (Ex 340 nm, Em 460 nm). The assay system (3 ml.) will typically contain: sodium phosphate buffer pH 7.0, 150 μmol; NAD 1.0 μmol; a given amount of enzyme preparation; and 20 μmol secondary alcohol. The reaction is started by the addition of secondary alcohol. One unit of SADH enzyme activity represents the reduction of one nmole NAD per minute.
The effect of metal-chelating agents and thioreagents on the activity of the purified SADH enzyme were studied. […] The possibility of ethanol or n-propanol as an inhibitor was studied.

[9] = spectrophotometric, 2-butanol as substrate

In the case of `CCC(C)O` (stereo not shown) [2-Butanol, 2-butanol], the “Conversion Rates, sec-alcohol to methyl ketone” value (“Conversion Rates, sec-alcohol” below) [1] is reported as 3.5 μmoles/hr/mg protein, the “Conversion Rates, sec-alcohol” value [2] is reported as 4.7 μmoles/hr/mg protein and the “Conversion Rate, sec-alcohol to ketone” value ([3]; growth substrate Ethanol) is reported as 6.2 μmoles/hr/mg of protein. For the same compound, the “Conversion Rate, sec-alcohol to ketone” value ([3]; growth substrate Methanol) was 6.8 μmoles/hr/mg of protein, the “Conversion Rate, sec-alcohol to ketone” value ([3]; growth substrate Methylamine) was 5.1 μmoles/hr/mg of protein and the “Conversion Rate, sec-alcohol to ketone” value ([3]; growth substrate Methylformate) was 6.9 μmoles/hr/mg of protein. For the same compound, the “Conversion Rate, sec-alcohol to ketone” value ([3]; growth substrate Propylamine) was 2.1 μmoles/hr/mg of protein, the “Conversion Rate, sec-alcohol to ketone” value ([4]; growth substrate Ethanol) was 4.7 μmoles/hr/mg of protein and the “Conversion Rate, sec-alcohol to ketone” value ([4]; growth substrate Methanol) was 4.9 μmoles/hr/mg of protein. For the same compound, the “Conversion Rate, sec-alcohol to ketone” value ([4]; growth substrate Methylamine) was 4.5 μmoles/hr/mg of protein, the “Conversion Rate, sec-alcohol to ketone” value ([4]; growth substrate Methylformate) was 4.9 μmoles/hr/mg of protein and the “Conversion Rate, sec-alcohol to ketone” value ([4]; growth substrate Propylamine) was 3.8 μmoles/hr/mg of protein. The “Conversion Rate, sec-alcohol to ketone” value ([5]; growth substrate Ethanol) was 5.7 μmoles/hr/mg of protein, the “Conversion Rate, sec-alcohol to ketone” value ([5]; growth substrate Methanol) was 5.9 μmoles/hr/mg of protein and the “Conversion Rate, sec-alcohol to ketone” value ([5]; growth substrate Methylamine) was 5.4 μmoles/hr/mg of protein. The “Conversion Rate, sec-alcohol to ketone” value ([5]; growth substrate Methylformate) was 5.9 μmoles/hr/mg of protein, the “Conversion Rate, sec-alcohol to ketone” value ([5]; growth substrate Propylamine) was 4.2 μmoles/hr/mg of protein and the “Conversion Rate, secondary alcohol to methylketone” value (“Conversion Rate, secondary alcohol” for short) [6] was 5.2 μmoles/hr/mg Protein. For the same compound, the specific activities [6, 9] was 85 nmoles NAD^+ reduced per min. per mg. protein, the “Conversion Rate, secondary alcohol” value [7] was 4.9 μmoles/hr/mg Protein and the specific activities [7, 9] was 62 nmoles NAD^+ reduced per min. per mg. protein. For the same compound, the “substrate specificity of purified SADH (in words)” value (“substrate specificity” below) [8] was “highest”.
In the case of `CCCCC(C)O` (stereo not shown) [2-Hexanol, 2-hexanol], the “Conversion Rates, sec-alcohol” value [1] is reported as 0.80 μmoles/hr/mg protein, the “Conversion Rates, sec-alcohol” value [2] is reported as 0.03 μmoles/hr/mg protein and the “Conversion Rate, sec-alcohol to ketone” value ([3]; growth substrate Ethanol) is reported as 0.28 μmoles/hr/mg of protein. For the same compound, the “Conversion Rate, sec-alcohol to ketone” value ([3]; growth substrate Methanol) was 0.50 μmoles/hr/mg of protein, the “Conversion Rate, sec-alcohol to ketone” value ([3]; growth substrate Methylamine) was 0.31 μmoles/hr/mg of protein and the “Conversion Rate, sec-alcohol to ketone” value ([3]; growth substrate Methylformate) was 0.48 μmoles/hr/mg of protein. The “Conversion Rate, sec-alcohol to ketone” value ([3]; growth substrate Propylamine) was 0.21 μmoles/hr/mg of protein, the “Conversion Rate, sec-alcohol to ketone” value ([4]; growth substrate Ethanol) was 0.20 μmoles/hr/mg of protein and the “Conversion Rate, sec-alcohol to ketone” value ([4]; growth substrate Methanol) was 0.21 μmoles/hr/mg of protein. The “Conversion Rate, sec-alcohol to ketone” value ([4]; growth substrate Methylamine) was 0.12 μmoles/hr/mg of protein, the “Conversion Rate, sec-alcohol to ketone” value ([4]; growth substrate Methylformate) was 0.25 μmoles/hr/mg of protein and the “Conversion Rate, sec-alcohol to ketone” value ([4]; growth substrate Propylamine) was 0.10 μmoles/hr/mg of protein. For the same compound, the “Conversion Rate, sec-alcohol to ketone” value ([5]; growth substrate Ethanol) was 0.12 μmoles/hr/mg of protein, the “Conversion Rate, sec-alcohol to ketone” value ([5]; growth substrate Methanol) was 0.25 μmoles/hr/mg of protein and the “Conversion Rate, sec-alcohol to ketone” value ([5]; growth substrate Methylamine) was 0.10 μmoles/hr/mg of protein. The “Conversion Rate, sec-alcohol to ketone” value ([5]; growth substrate Methylformate) was 0.28 μmoles/hr/mg of protein, the “Conversion Rate, sec-alcohol to ketone” value ([5]; growth substrate Propylamine) was 0.11 μmoles/hr/mg of protein and the “Conversion Rate, secondary alcohol” value [6] was 0.51 μmoles/hr/mg Protein. The “Conversion Rate, secondary alcohol” value [7] was 0.21 μmoles/hr/mg Protein, the “substrate specificity” value [8] was “lower rate” and the “relative percent rate of oxidation” value [8] was 2%.
`CCCC(C)O` (stereo not shown) [2-Pentanol, 2-pentanol] was tested, and the “Conversion Rates, sec-alcohol” value [1] was 2.1 μmoles/hr/mg protein, the “Conversion Rates, sec-alcohol” value [2] was 0.05 μmoles/hr/mg protein and the “Conversion Rate, sec-alcohol to ketone” value ([3]; growth substrate Ethanol) was 1.0 μmoles/hr/mg of protein. For the same compound, the “Conversion Rate, sec-alcohol to ketone” value ([3]; growth substrate Methanol) was 1.2 μmoles/hr/mg of protein, the “Conversion Rate, sec-alcohol to ketone” value ([3]; growth substrate Methylamine) was 0.72 μmoles/hr/mg of protein and the “Conversion Rate, sec-alcohol to ketone” value ([3]; growth substrate Methylformate) was 0.98 μmoles/hr/mg of protein. For the same compound, the “Conversion Rate, sec-alcohol to ketone” value ([3]; growth substrate Propylamine) was 0.60 μmoles/hr/mg of protein, the “Conversion Rate, sec-alcohol to ketone” value ([4]; growth substrate Ethanol) was 1.2 μmoles/hr/mg of protein and the “Conversion Rate, sec-alcohol to ketone” value ([4]; growth substrate Methanol) was 1.0 μmoles/hr/mg of protein. The “Conversion Rate, sec-alcohol to ketone” value ([4]; growth substrate Methylamine) was 0.9 μmoles/hr/mg of protein, the “Conversion Rate, sec-alcohol to ketone” value ([4]; growth substrate Methylformate) was 1.1 μmoles/hr/mg of protein and the “Conversion Rate, sec-alcohol to ketone” value ([4]; growth substrate Propylamine) was 0.62 μmoles/hr/mg of protein. For the same compound, the “Conversion Rate, sec-alcohol to ketone” value ([5]; growth substrate Ethanol) was 1.0 μmoles/hr/mg of protein, the “Conversion Rate, sec-alcohol to ketone” value ([5]; growth substrate Methanol) was 1.2 μmoles/hr/mg of protein and the “Conversion Rate, sec-alcohol to ketone” value ([5]; growth substrate Methylamine) was 1.0 μmoles/hr/mg of protein. The “Conversion Rate, sec-alcohol to ketone” value ([5]; growth substrate Methylformate) was 1.2 μmoles/hr/mg of protein, the “Conversion Rate, sec-alcohol to ketone” value ([5]; growth substrate Propylamine) was 0.92 μmoles/hr/mg of protein and the “Conversion Rate, secondary alcohol” value [6] was 1.0 μmoles/hr/mg Protein. For the same compound, the “Conversion Rate, secondary alcohol” value [7] was 1.0 μmoles/hr/mg Protein, the “substrate specificity” value [8] was “lower rate” and the “relative percent rate of oxidation” value [8] was 5%.
